Measured values reported in publication PMC12090182, “Repurposing of the RIPK1-Selective Benzo[1,4]oxazepin-4-one Scaffold for the Development of a Type III LIMK1/2 Inhibitor” (ACS Chemical Biology, 2025).
Like-named read-outs stand apart in the source and are kept apart here.

Columns and labels:
Assay type in all cases: cell-based
MRC-9 cells = assay: Multiplex high-content viability assessment; details: human fibroblast
Method: (§1) To assess the influence on cell health, a high-content screening in living cells called the multiplex high-content assay, as described previously by Tjaden et al., was performed.[38] In brief, HEK293T (ATCC CRL-1573) and U2OS (ATCCHTB-96) were cultured in DMEM plus L-glutamine (high glucose) supplemented by 10% FBS (Gibco) and penicillin/streptomycin (Gibco). MRC-9 fibroblasts ([…]) were cultured in EMEM plus L-glutamine supplemented by 10% FBS (Gibco) and penicillin/streptomycin (Gibco). Cells were seeded at a density of 1250 cells per well in a 384-well plate in a culture medium (cell culture microplate, PS, f-bottom, μClear, 781091, Greiner), with a volume of 50 μL per well. All outer wells were filled with 100 μL of PBS buffer (Gibco). […] The cell shape and fluorescence were measured before treatment and 12, 24, and 48 h after compound treatment using the CQ1 high-content confocal microscope (Yokogawa, Musashino, Japan). […] The compounds were tested at 1 and 10 μM, respectively. Acquired images of the cells were processed using Yokogawa CellPathfinder software (v3.04.02.02). […] Results were normalized to cells exposed to 0.1% DMSO. All compounds were tested in biological duplicates, and SEM (standard error of mean) was calculated of biological duplicates.

U2OS cells = details: human, 24 h, 1 µM
Method: as §1

HEK293T cells = details: human
Method: as §1

[1] = 1 µM, 0 h, biological replicate 1
[2] = 1 µM, 12 h, biological replicate 1
[3] = 1 µM, 24 h, biological replicate 1
[4] = 1 µM, 48 h, biological replicate 1
[5] = 1 µM, 0 h after treatment, biological replicate 2
[6] = 1 µM, 12 h after treatment, biological replicate 2
[7] = 1 µM, 24 h after treatment, biological replicate 2
[8] = 1 µM, 48 h after treatment, biological replicate 2
[9] = 10 µM, 0 h, biological replicate 1
[10] = 10 µM, 12 h, biological replicate 1
[11] = 10 µM, 24 h, biological replicate 1
[12] = 10 µM, 48 h, biological replicate 1
[13] = 10 µM, 0 h after treatment, biological replicate 2
[14] = 10 µM, 12 h after treatment, biological replicate 2
[15] = 10 µM, 24 h after treatment, biological replicate 2
[16] = 10 µM, 48 h after treatment, biological replicate 2

CCCCN(Cc1ccccc1)C(=O)c1ccc(S(=O)(=O)Nc2ccccc2)cc1 [TH257]
Cell count normalized to cells treated with DMSO control (MRC-9 cells; [1]): 1.114
Cell count per well (MRC-9 cells; [1]): 167
Population Fragmented Nuclei (%) (MRC-9 cells; [1]): 8.59%
Population Healthy Nuclei (%) (MRC-9 cells; [1]): 70.55%
Population Pyknosed Nuclei (%) (MRC-9 cells; [1]): 20.86%
Population apoptotic cell (%) (MRC-9 cells; [1]): 41.18%
Population cell that influence microtubule strucutre (%) (MRC-9 cells; [1]): 18.26%
Population with increased mitochondrial mass (%) (MRC-9 cells; [1]): 10.43%
Population with membrane disruption (%) (MRC-9 cells; [1]): 0.87%
Cell count normalized to cells treated with DMSO control (MRC-9 cells; [2]): 1.0759
Cell count per well (MRC-9 cells; [2]): 162
Population Fragmented Nuclei (%) (MRC-9 cells; [2]): 8.18%
Population Healthy Nuclei (%) (MRC-9 cells; [2]): 74.84%
Population Pyknosed Nuclei (%) (MRC-9 cells; [2]): 16.98%
Population apoptotic cell (%) (MRC-9 cells; [2]): 37.04%
Population cell that influence microtubule strucutre (%) (MRC-9 cells; [2]): 23.53%
Population with increased mitochondrial mass (%) (MRC-9 cells; [2]): 5.88%
Population with membrane disruption (%) (MRC-9 cells; [2]): 1.68%
Cell count normalized to cells treated with DMSO control (MRC-9 cells; [3]): 1.074
Cell count per well (MRC-9 cells; [3]): 162
Population Fragmented Nuclei (%) (MRC-9 cells; [3]): 8.86%
Population Healthy Nuclei (%) (MRC-9 cells; [3]): 76.58%
Population Pyknosed Nuclei (%) (MRC-9 cells; [3]): 14.56%
Population apoptotic cell (%) (MRC-9 cells; [3]): 43.48%
Population cell that influence microtubule strucutre (%) (MRC-9 cells; [3]): 23.97%
Population with increased mitochondrial mass (%) (MRC-9 cells; [3]): 5.79%
Population with membrane disruption (%) (MRC-9 cells; [3]): 0.00%
Cell count normalized to cells treated with DMSO control (MRC-9 cells; [4]): 1.094
Cell count per well (MRC-9 cells; [4]): 166
Population Fragmented Nuclei (%) (MRC-9 cells; [4]): 14.56%
Population Healthy Nuclei (%) (MRC-9 cells; [4]): 76.58%
Population Pyknosed Nuclei (%) (MRC-9 cells; [4]): 8.86%
Population apoptotic cell (%) (MRC-9 cells; [4]): 64.29%
Population cell that influence microtubule strucutre (%) (MRC-9 cells; [4]): 20.66%
Population with increased mitochondrial mass (%) (MRC-9 cells; [4]): 0.83%
Population with membrane disruption (%) (MRC-9 cells; [4]): 0.83%
Cell count normalized to cells treated with DMSO control (MRC-9 cells; [5]): 1.076
Cell count per well (MRC-9 cells; [5]): 192
Population Fragmented Nuclei (%) (MRC-9 cells; [5]): 13.26%
Population Healthy Nuclei (%) (MRC-9 cells; [5]): 56.35%
Population Pyknosed Nuclei (%) (MRC-9 cells; [5]): 30.39%
Population apoptotic cell (%) (MRC-9 cells; [5]): 34.55%
Population cell that influence microtubule strucutre (%) (MRC-9 cells; [5]): 45.10%
Population with increased mitochondrial mass (%) (MRC-9 cells; [5]): 3.92%
Population with membrane disruption (%) (MRC-9 cells; [5]): 7.84%
Cell count normalized to cells treated with DMSO control (MRC-9 cells; [6]): 1.0446
Cell count per well (MRC-9 cells; [6]): 174
Population Fragmented Nuclei (%) (MRC-9 cells; [6]): 19.08%
Population Healthy Nuclei (%) (MRC-9 cells; [6]): 51.97%
Population Pyknosed Nuclei (%) (MRC-9 cells; [6]): 28.95%
Population apoptotic cell (%) (MRC-9 cells; [6]): 25.00%
Population cell that influence microtubule strucutre (%) (MRC-9 cells; [6]): 64.56%
Population with increased mitochondrial mass (%) (MRC-9 cells; [6]): 13.92%
Population with membrane disruption (%) (MRC-9 cells; [6]): 7.59%
Cell count normalized to cells treated with DMSO control (MRC-9 cells; [7]): 0.9402
Cell count per well (MRC-9 cells; [7]): 155
Population Fragmented Nuclei (%) (MRC-9 cells; [7]): 16.78%
Population Healthy Nuclei (%) (MRC-9 cells; [7]): 57.34%
Population Pyknosed Nuclei (%) (MRC-9 cells; [7]): 25.87%
Population apoptotic cell (%) (MRC-9 cells; [7]): 35.14%
Population cell that influence microtubule strucutre (%) (MRC-9 cells; [7]): 70.73%
Population with increased mitochondrial mass (%) (MRC-9 cells; [7]): 4.88%
Population with membrane disruption (%) (MRC-9 cells; [7]): 13.41%
Cell count per well (MRC-9 cells; [8]): 166
Population Fragmented Nuclei (%) (MRC-9 cells; [8]): 32.10%
Population Healthy Nuclei (%) (MRC-9 cells; [8]): 49.38%
Population Pyknosed Nuclei (%) (MRC-9 cells; [8]): 18.52%
Population apoptotic cell (%) (MRC-9 cells; [8]): 50.00%
Population cell that influence microtubule strucutre (%) (MRC-9 cells; [8]): 76.25%
Population with increased mitochondrial mass (%) (MRC-9 cells; [8]): 3.75%
Population with membrane disruption (%) (MRC-9 cells; [8]): 8.75%
Cell count normalized to cells treated with DMSO control (MRC-9 cells; [9]): 1.048
Cell count per well (MRC-9 cells; [9]): 157
Population Fragmented Nuclei (%) (MRC-9 cells; [9]): 18.47%
Population Healthy Nuclei (%) (MRC-9 cells; [9]): 59.24%
Population Pyknosed Nuclei (%) (MRC-9 cells; [9]): 22.29%
Population apoptotic cell (%) (MRC-9 cells; [9]): 34.29%
Population cell that influence microtubule strucutre (%) (MRC-9 cells; [9]): 23.66%
Population with increased mitochondrial mass (%) (MRC-9 cells; [9]): 3.23%
Population with membrane disruption (%) (MRC-9 cells; [9]): 0.00%
Cell count normalized to cells treated with DMSO control (MRC-9 cells; [10]): 1.149
Cell count per well (MRC-9 cells; [10]): 173
Population Fragmented Nuclei (%) (MRC-9 cells; [10]): 12.35%
Population Healthy Nuclei (%) (MRC-9 cells; [10]): 58.02%
Population Pyknosed Nuclei (%) (MRC-9 cells; [10]): 29.63%
Population apoptotic cell (%) (MRC-9 cells; [10]): 35.42%
Population cell that influence microtubule strucutre (%) (MRC-9 cells; [10]): 80.85%
Population with increased mitochondrial mass (%) (MRC-9 cells; [10]): 13.83%
Population with membrane disruption (%) (MRC-9 cells; [10]): 4.26%
Cell count normalized to cells treated with DMSO control (MRC-9 cells; [11]): 1.094
Cell count per well (MRC-9 cells; [11]): 165
Population Fragmented Nuclei (%) (MRC-9 cells; [11]): 16.25%
Population Healthy Nuclei (%) (MRC-9 cells; [11]): 66.25%
Population Pyknosed Nuclei (%) (MRC-9 cells; [11]): 17.50%
Population apoptotic cell (%) (MRC-9 cells; [11]): 57.14%
Population cell that influence microtubule strucutre (%) (MRC-9 cells; [11]): 88.68%
Population with increased mitochondrial mass (%) (MRC-9 cells; [11]): 11.32%
Population with membrane disruption (%) (MRC-9 cells; [11]): 1.89%
Cell count normalized to cells treated with DMSO control (MRC-9 cells; [12]): 1.18
Cell count per well (MRC-9 cells; [12]): 179
Population Fragmented Nuclei (%) (MRC-9 cells; [12]): 23.84%
Population Healthy Nuclei (%) (MRC-9 cells; [12]): 63.37%
Population Pyknosed Nuclei (%) (MRC-9 cells; [12]): 12.79%
Population apoptotic cell (%) (MRC-9 cells; [12]): 72.73%
Population cell that influence microtubule strucutre (%) (MRC-9 cells; [12]): 85.32%
Population with increased mitochondrial mass (%) (MRC-9 cells; [12]): 20.18%
Population with membrane disruption (%) (MRC-9 cells; [12]): 0.92%
Cell count normalized to cells treated with DMSO control (MRC-9 cells; [13]): 0.8298
Cell count per well (MRC-9 cells; [13]): 148
Population Fragmented Nuclei (%) (MRC-9 cells; [13]): 24.82%
Population Healthy Nuclei (%) (MRC-9 cells; [13]): 45.39%
Population Pyknosed Nuclei (%) (MRC-9 cells; [13]): 29.79%
Population apoptotic cell (%) (MRC-9 cells; [13]): 47.62%
Population cell that influence microtubule strucutre (%) (MRC-9 cells; [13]): 40.63%
Population with increased mitochondrial mass (%) (MRC-9 cells; [13]): 9.38%
Population with membrane disruption (%) (MRC-9 cells; [13]): 3.13%
Cell count normalized to cells treated with DMSO control (MRC-9 cells; [14]): 0.8645
Cell count per well (MRC-9 cells; [14]): 144
Population Fragmented Nuclei (%) (MRC-9 cells; [14]): 24.46%
Population Healthy Nuclei (%) (MRC-9 cells; [14]): 56.83%
Population Pyknosed Nuclei (%) (MRC-9 cells; [14]): 18.71%
Population apoptotic cell (%) (MRC-9 cells; [14]): 50.00%
Population cell that influence microtubule strucutre (%) (MRC-9 cells; [14]): 86.08%
Population with increased mitochondrial mass (%) (MRC-9 cells; [14]): 13.92%
Population with membrane disruption (%) (MRC-9 cells; [14]): 12.66%
Cell count normalized to cells treated with DMSO control (MRC-9 cells; [15]): 0.8917
Cell count per well (MRC-9 cells; [15]): 147
Population Fragmented Nuclei (%) (MRC-9 cells; [15]): 25.18%
Population Healthy Nuclei (%) (MRC-9 cells; [15]): 59.71%
Population Pyknosed Nuclei (%) (MRC-9 cells; [15]): 15.11%
Population apoptotic cell (%) (MRC-9 cells; [15]): 57.14%
Population cell that influence microtubule strucutre (%) (MRC-9 cells; [15]): 91.57%
Population with increased mitochondrial mass (%) (MRC-9 cells; [15]): 19.28%
Population with membrane disruption (%) (MRC-9 cells; [15]): 4.82%
Cell count normalized to cells treated with DMSO control (MRC-9 cells; [16]): 0.964
Cell count per well (MRC-9 cells; [16]): 157
Population Fragmented Nuclei (%) (MRC-9 cells; [16]): 30.32%
Population Healthy Nuclei (%) (MRC-9 cells; [16]): 59.35%
Population Pyknosed Nuclei (%) (MRC-9 cells; [16]): 10.32%
Population apoptotic cell (%) (MRC-9 cells; [16]): 56.25%
Population cell that influence microtubule strucutre (%) (MRC-9 cells; [16]): 89.13%
Population with increased mitochondrial mass (%) (MRC-9 cells; [16]): 18.48%
Population with membrane disruption (%) (MRC-9 cells; [16]): 0.00%
Cell count per well (U2OS cells): 316
Population with membrane disruption (%) (HEK293T cells; 0 h, 1 µM): 0.00%
Population with membrane disruption (%) (HEK293T cells; 0 h, 10 µM): 0.00%
Population with membrane disruption (%) (HEK293T cells; 24 h, 10 µM): 0.00%
